This note sets out measurements from patent US4148787A, “Antidiuretically effective polypeptide and a process for preparing the same” (Ferring AB, priority 1976, dated 1979).

Assay [1] can be described thus: Relative antidiuretic activity in relation to DDAVP. The following applies: relative activity figure, DDAVP arbitrarily set at 1.00. The class given is in vivo. From the text:
(§1) Thus, the strenghts in Table I are expressed as relative activity figures, data for DDAVP as a comparative compound being arbitrarily set at 1.00.

The nature of assay [2]: Relative uterotonic activity in relation to DDAVP. The following applies: relative activity figure, DDAVP arbitrarily set at 1.00.
Description: as §1

The nature of assay [3]: Relative blood pressure (raising) activity in relation to DDAVP. It is filed as in vivo.
Description: as §1

For `NC(=O)CC[C@@H]1NC(=O)[C@H](Cc2ccccc2)NC(=O)[C@H](Cc2ccc(O)cc2)NC(=O)CCSSC[C@@H](C(=O)N2CCC[C@H]2C(=O)N[C@H](CCCN=C(N)N)C(=O)NCC(N)=O)NC(=O)[C@H](CC(N)=O)NC1=O` [DDAVP, desamino-D-arginine^8 -vasopressin], the “Antidiuresis (relative activity)” value in assay [1] is reported as 1.00. In assay [2], the “Uterotonic (relative activity)” value amounted to 1.00. Moreover, the “Blood pressure (relative activity)” value in assay [3] (relative activity figure, DDAVP arbitrarily set at 1.00) was determined as 1.00.

Turning to `NC(=O)CC[C@@H]1NC(=O)[C@H](Cc2ccccc2)NC(=O)[C@H](Cc2ccc(O)cc2)NC(=O)[C@@H](N)CSSC[C@@H](C(=O)N2CCC[C@H]2C(=O)N[C@@H](CCCN=C(N)N)C(=O)NCC(N)=O)NC(=O)[C@H](CC(N)=O)NC1=O` [Arg-vasopressin, arginine-vasopressin], the “Antidiuresis (relative activity)” value in assay [1] is listed as 0.10. The “Uterotonic (relative activity)” value in assay [2] was 1.0. Moreover, the “Blood pressure (relative activity)” value in assay [3] (in vivo) amounted to 1450.
